Source: publication PMC5556071, “ATR inhibition facilitates targeting of leukemia dependence on convergent nucleotide biosynthetic pathways” (Nature Communications, 2017)
“And” between values parts separate entries of the source, which are not always exact repeats. Equal values may be shown once.

Tested on: CEM cells
Assay: Non-targeted LC-MS metabolite profiling: percent [13C6]glucose labeling and relative metabolite levels
Type: cell-based, human
Conditions: CEM cells, 12 h following release from G1 arrest, replicates #1-#6
Description: To further investigate the functions of dCK and ATR at the G1/S transition in CEM cells, a non-targeted liquid chromatography mass spectrometry (LC-MS) assay was used to determine the utilization of labeled [^13C6]glucose and [^13C9,^15N3]deoxycytidine, the main substrates for de novo and salvage nucleotide biosynthesis, respectively. Of the 166 metabolites identified in CEM cells treated with VE-822 and/or dCKi, 105 metabolites found in all four treatment groups contained glucose-derived ^13C atoms. […] These metabolites included intermediates such as rUTP, rCTP and rCDP in the de novo dCTP biosynthesis (Fig. 1d). […] However, several deoxyribonucleotides, including dCTP, were below the limit of detection of the non-targeted LC-MS approach, raising the concern that the sensitivity of this assay is not sufficient to measure the contribution of the salvage pathway or the ratio of de novo and salvage biosynthesis to these pools. To address this problem, a newly developed targeted MS assay was developed (Fig. 1e and Supplementary Fig. 3). In this assay, samples containing either extracted dNTPs or hydrolyzed DNA from labeled cells are separated by LC for detection by a triple quadrupole mass spectrometer using multiple reaction monitoring (LC-MS/MS-MRM). The first (Q1) and third (Q3) quadrupoles function as mass filters, while the second (Q2) quadrupole serves as a collision chamber (Fig. 1e). For instance, to profile the biosynthetic composition of deoxycytidine (dC) derived from hydrolyzed DNA or dCTP, an intact, protonated dC ion is selected in Q1, followed by fragmentation of the glycosidic bond, which releases protonated cytosine in Q2, that is filtered in Q3 and detected to generate an ion chromatogram. The peak areas for the ion chromatograms of salvage [^13C9,^15N3]dC (red trace), de novo [^13C5]dC (black trace, from [^13C6]glucose) and unlabeled dC (gray trace) (Fig. 1e) are used to determine the relative contributions of the de novo and salvage routes both to dCTP pools and to DNA-incorporated dCTP.
Cells were transferred into RPMI-1640 without glucose and supplemented with 10% dialyzed FBS (Gibco) containing the following labeled substrates: precursors for de novo [U-^13C6]glucose (Sigma-Aldrich, 389374) at 11 mM; precursors for purine salvage [U-^13C10,^15N5]dA (Cambridge Isotopes, CIL 3896), [^15N5]dA (Cambridge Isotopes, NLM-3895) and [^15N5]dG (Cambridge Isotopes, NLM-3899) at 5 µM or as indicated; and precursors for pyrimidine salvage: [U-^13C9,^15N3]dC (Silantes, 124603602) and [U-^13C10,^15N2]dT (Cambridge Isotopes, CNLM-3902) at 5 µM and [^15N2]orotate (Cambridge Isotopes, NLM-1048) at indicated concentrations. The cells were incubated for 12 h or as indicated before sample collection and processing. […]
Non-targeted LC-MS metabolic assays. 1 x 10^6 cells were washed with ice-cold 150 mM ammonium acetate twice before adding 1 mL of ice-cold 80% methanol with 10 nM norvaline as an internal standard. After vigorous vortexing, samples were centrifuged at maximum speed, the aqueous layer was transferred to a glass vial and the metabolites were dried under vacuum. Metabolites were resuspended in 50 μL 70% acetonitrile (ACN) and 5 μL of this solution used for the mass spectrometer-based analysis. The analysis was performed on a Q Exactive (Thermo Scientific) in polarity-switching mode with positive voltage 4.0 kV and negative voltage 4.0 kV. The mass spectrometer was coupled to an UltiMate 3000RSLC (Thermo Scientific) UHPLC system. Mobile phase A was 5 mM ammonium acetate (NH4AcO), pH 9.9, B was acetonitrile and the separation achieved on a Luna […] NH2 100 A column (150 × 2.0 mm, Phenomenex). The flow was 200 μL/min, and the gradient ran from 15% A to 95% A in 18 min, followed by an isocratic step for 9 min and re-equilibration for 7 min. Metabolites were detected and quantified as area under the curve based on retention time and accurate mass (≤ 3 p.p.m.) using the TraceFinder 3.1 (Thermo Scientific). Relative amounts of […]

[1] = metabolite 2-HG (C02630), listed as D
[2] = metabolite 2-Oxoadipate (C00322), listed as D
[3] = metabolite 3PG (C00197), listed as D
[4] = metabolite 4-OH-PheLac (C03672), listed as D
[5] = metabolite 5-Oxoproline (C01879), listed as D
[6] = metabolite 5M-adenosine (C00170), listed as D
[7] = metabolite A (C00212), listed as D
[8] = metabolite ADP (C00008), listed as D
[9] = metabolite AMP (C00020), listed as D
[10] = metabolite ATP (C00002), listed as D
[11] = metabolite Ac-carnitine (C02571), listed as D
[12] = metabolite Ac-choline (C01996), listed as D
[13] = metabolite Aconitate (C00417), listed as D
[14] = metabolite Adenine (C00034), listed as D
[15] = metabolite Ala (C00041), listed as D
[16] = metabolite Allantoin (C02350), listed as D
[17] = metabolite Arg (C00062), listed as D

Q: With `COc1ccc(-c2nc([C@@H](C)Sc3nc(N)cc(N)n3)c(C)s2)cc1OCCNS(C)(=O)=O` [dCKi] as the compound, how does the “Relative level, S7P” value (listed as D) read?
A: 0.547 and 0.8 and 1.8 and 0.0379 and 0.143 and 0.5

Q: What about the “Relative level, SAM” value (listed as D) of the same compound?
A: 1.1 and 1.4 (2×) and 0.8 and 0.6 and 0.7

Q: And the “Relative level, Sarc (C00213)” value (listed as D)?
A: 1.2 and 1.0 (2×) and 1.6 and 0.662 and 0.641

Q: And the “Relative level, Ser (C00065)” value (listed as D)?
A: 1.1 and 1.2 and 1.3 and 0.846 and 0.7 and 0.9

Q: What about the “Relative level, Shikimate (C00493)” value (listed as D) of the same compound?
A: 1.3 and 0.7 and 1.0 and 0.649 and 0.9 (2×)

Q: And the “Relative level, Succ (C00042)” value (listed as D)?
A: 1.5 and 0.6 (2×) and 1.3 and 0.374 and 0.633

Q: And the “Relative level, T (C00214)” value (listed as D)?
A: 1.2 and 1.1 and 1.0 and 1.4 and 151.2 and 4.3

Q: And the “Relative level, Thr (C00188)” value (listed as D)?
A: 1.1 and 1.2 and 1.3 and 0.8 and 0.7 and 0.738

Q: What about the “Relative level, Thymine (C00178)” value (listed as D) of the same compound?
A: 1.0 and 1.2 and 1.3 and 0.9 and 0.95 and 1.1

Q: And the “Relative level, Trigonelline (C01004)” value (listed as D)?
A: 1.2 (2×) and 0.847 and 1.1 and 1.5 and 1.0

Q: What about the “Relative level, Trp (C00078)” value (listed as D) of the same compound?
A: 1.1 and 1.4 and 1.7 and 0.9 (2×) and 1.0

Q: What about the “Relative level, Tyr (C00082)” value (listed as D) of the same compound?
A: 1.2 and 1.4 and 1.6 and 0.9 and 0.7 and 0.8

Q: What about the “Relative level, Tyramine (C00483)” value (listed as D) of the same compound?
A: 1.2 (2×) and 1.1 and 0.8 (2×) and 0.7

Q: What about the “Relative level, UDP (C00015)” value (listed as D) of the same compound?
A: 0.742 and 1.3 and 2.0 and 0.235 and 0.464 and 0.9

Q: And the “Relative level, UDP-Glc (C00029)” value (listed as D)?
A: 0.8 and 1.2 and 1.1 and 0.3 and 0.6 (2×)

Q: What about the “Relative level, UDP-GlcNAc (C00043)” value (listed as D) of the same compound?
A: 1.0 and 1.4 and 1.2 and 0.5 and 0.744 and 0.8

Q: And the “Relative level, UMP (C00105)” value (listed as D)?
A: 1.3 and 1.6 and 1.9 and 0.4 and 0.552 and 0.7

Q: What about the “Relative level, UTP (C00075)” value (listed as D) of the same compound?
A: 0.4 and 0.9 and 1.4 and 0.092 and 0.334 and 0.547

Q: And the “Relative level, Uracil (C00106)” value (listed as D)?
A: 1.2 (2×) and 0.9 and 1.0 and 1.3 and 1.9

Q: What about the “Relative level, Uric Acid (C00366)” value (listed as D) of the same compound?
A: 1.5 and 0.155 and 0.646 and 0.6 and 0.362 and 0.421

Q: What about the “Relative level, Urocanate (C00785)” value (listed as D) of the same compound?
A: 2.0 and 0.4 and 0.448 and 1.2 (2×) and 1.0

Q: What about the “Relative level, Val (C00183)” value (listed as D) of the same compound?
A: 1.1 and 1.2 (2×) and 0.9 (2×) and 1.0

Q: And the “Relative level, Vit-C (C00072)” value (listed as D)?
A: 0.9 and 0.181 and 1.3 and 0.0595 and 0.3 and 0.557

Q: What about the “Relative level, Xanthine (C00385)” value (listed as D) of the same compound?
A: 1.7 and 0.5 and 0.6 and 1.1 and 1.5 and 1.2

Q: And the “Glucose labeling, 2-HG” value [1]?
A: 6.77% and 13.59% and 15.44% and 1.27% and 1.71% and 4.69%

Q: And the “Relative level, 2-HG” value [1]?
A: 1.0 and 0.9 and 1.5 and 0.5 (2×) and 0.7

Q: What about the “Glucose labeling, 2-HIC” value (metabolite 2-HIC (C03264)) of the same compound?
A: 0.00%

Q: And the “Relative level, 2-HIC” value (metabolite 2-HIC (C03264), listed as D)?
A: 1.2 and 1.1 and 1.4 and 0.9 and 1.3 and 0.8

Q: And the “Glucose labeling, 2-KIC” value (metabolite 2-KIC (C00233))?
A: 0.00%

Q: What about the “Relative level, 2-KIC” value (metabolite 2-KIC (C00233), listed as D) of the same compound?
A: 1.2 and 0.9 (3×) and 1.1 and 0.8

Q: What about the “Glucose labeling, 2-Oxoadipate” value [2] of the same compound?
A: 0.00% (5×) and 1.11e-14%

Q: And the “Relative level, 2-Oxoadipate” value [2]?
A: 0.7 (2×) and 0.646 and 0.742 and 1.0 and 0.9

Q: What about the “Glucose labeling, 2-Oxosuccinamate” value (metabolite 2-Oxosuccinamate (C02362)) of the same compound?
A: 0.0737%

Q: What about the “Relative level, 2-Oxosuccinamate” value (metabolite 2-Oxosuccinamate (C02362), listed as D) of the same compound?
A: 1.2 and 0.465 and 0.6 and 0.528 and 0.8 and 0.469

Q: And the “Glucose labeling, 3PG” value [3]?
A: 92.31% and 91.58% and 98.25% and 86.75% and 100.00% and 88.16%

Q: What about the “Relative level, 3PG” value [3] of the same compound?
A: 0.4 and 0.7 and 0.846 and 0.082 and 0.125 and 0.0782

Q: What about the “Glucose labeling, 4-OH-PheLac” value [4] of the same compound?
A: 0.00% (5×) and -2.22e-14%

Q: And the “Relative level, 4-OH-PheLac” value [4]?
A: 1.1 and 1.4 and 1.5 and 0.641 and 0.6 and 0.8

Q: And the “Glucose labeling, 5-Oxoproline” value [5]?
A: 0.92% and 1.40% and 1.07% and 1.03% and 1.24% and 1.22%

Q: And the “Relative level, 5-Oxoproline” value [5]?
A: 1.1 and 1.2 and 1.5 and 0.853 and 0.9 and 1.0

Q: What about the “Glucose labeling, 5M-adenosine” value [6] of the same compound?
A: 0.00% (3×) and -2.22e-14% (3×)

Q: What about the “Relative level, 5M-adenosine” value [6] of the same compound?
A: 1.2 and 1.7 and 1.8 and 0.756 and 0.7 and 1.0

Q: And the “Glucose labeling, A” value [7]?
A: 0.07% and 0.09% and 0.36% and 0.41% (2×) and 0.34%

Q: And the “Relative level, A” value [7]?
A: 1.5 and 0.9 (2×) and 1.1 and 0.856 and 0.8

Q: And the “Glucose labeling, ADP” value [8]?
A: 70.99% and 74.74% and 75.09% and 55.71% and 66.84% and 71.23%

Q: What about the “Relative level, ADP” value [8] of the same compound?
A: 0.7 and 1.2 and 1.9 and 0.226 and 0.4 and 0.8

Q: What about the “Glucose labeling, AMP” value [9] of the same compound?
A: 68.04% and 70.86% and 73.23% and 43.50% and 56.58% and 70.44%

Q: And the “Relative level, AMP” value [9]?
A: 1.2 (2×) and 1.8 and 0.25 and 0.471 and 0.9

Q: And the “Glucose labeling, ATP” value [10]?
A: 75.87% and 76.55% and 77.60% and 67.61% and 74.40% and 75.12%

Q: And the “Relative level, ATP” value [10]?
A: 0.38 and 0.9 and 1.3 and 0.117 and 0.3 and 0.6

Q: And the “Glucose labeling, Ac-carnitine” value [11]?
A: 31.00% and 33.96% and 35.62% and 27.44% and 29.81% and 28.83%

Q: And the “Relative level, Ac-carnitine” value [11]?
A: 1.1 and 1.3 and 1.2 and 0.7 and 0.756 and 0.8

Q: And the “Glucose labeling, Ac-choline” value [12]?
A: 0.00451% and 0.00494% and 0.00571% and 0.0058% and 0.0047% and 0.00638%

Q: What about the “Relative level, Ac-choline” value [12] of the same compound?
A: 0.9 and 1.1 and 1.0 (4×)

Q: And the “Glucose labeling, Aconitate” value [13]?
A: 32.66% and 37.44% and 42.11% and 17.39% and 31.02% and 28.93%

Q: And the “Relative level, Aconitate” value [13]?
A: 0.7 and 1.2 and 1.6 and 0.2 and 0.5 and 0.639

Q: What about the “Glucose labeling, Adenine” value [14] of the same compound?
A: 0.0339% and 2.19% and 0.79% and 0.14% and 0.00469% and 0.21%

Q: And the “Relative level, Adenine” value [14]?
A: 1.9 and 0.7 and 1.3 (2×) and 3.1 and 1.0

Q: And the “Glucose labeling, Ala” value [15]?
A: 47.12% and 64.98% and 65.33% and 49.43% and 49.22% and 48.91%

Q: And the “Relative level, Ala” value [15]?
A: 1.5 and 1.2 and 1.3 and 0.8 (3×)

Q: And the “Glucose labeling, Allantoin” value [16]?
A: 0.00% (5×) and 1.11e-14%

Q: What about the “Relative level, Allantoin” value [16] of the same compound?
A: 1.1 and 1.9 and 2.0 and 0.8 and 1.3 and 1.5

Q: What about the “Glucose labeling, Arg” value [17] of the same compound?
A: 0.0044% and 0.00434% and 0.00388% and 0.00418% and 0.00453% and 0.00424%

Q: What about the “Relative level, Arg” value [17] of the same compound?
A: 1.0 and 1.3 and 1.5 and 0.749 and 0.7 (2×)

Q: And the “Glucose labeling, Arg-Succ” value (metabolite Arg-Succ (C03406), listed as D)?
A: 7.24% and 12.66% and 11.40% and 7.14% and 3.06% and 7.90%
